Experimental data published in US20100234377A1 (priority 2007, published 2010).
Like-named read-outs stand apart in the source and are kept apart here.

Tests used:
[1] = tested on: B6.V Lep^ob mice (ob/ob mice); experiment: Pharmacological study: body weight and food intake of treated ob/ob mice; type: in vivo, mouse; conditions: male ob/ob mice, 120 mg/kg/day by oral gavage, 12 days of treatment, versus vehicle
Protocol: FIG. 1 is a body weight curve graph which plots the body weight and food intake of mice over time. Some of the mice are given food only whereas some are given food together with Compound 22 below.
16 Male ob/ob mice were obtained from Charles River in Belgium at an approximate age of 6 weeks and with an approximate mean body weight of 35 g at the beginning of substance administration. Mice were housed 4 per cage at a temperature of 23° C.±1 and a day/night cycle of 14/10 hours (05:00-19:00-05:00), with ad libitum access to standard chow and tap water. Mice were allowed to adapt to these conditions for 8 days prior to the start of treatment. Animals were administered substance by oral gavage in the morning at 07:00, immediately after determining body weight and food consumption. In the evening substance was administered at 19:00. One group of 8 animals were administered vehicle, 0.3% methylcellulose in saline, and the second group of 8 animals were administered Compound 22 (120 mg/kg/day) suspended in the vehicle. Body weight and food consumption were recorded daily during 12 days of treatment and the results are presented in FIG. 1, which is a body weight curve graph. This illustrates a 7% reduced weight gain in Compound 22 administered ob/ob mice, despite unaltered food intake.

PPARγ (h) = biological target: T1, PPARγ (h) (Homo sapiens, UniProt P37231); experiment: PPARγ receptor binding assay ([3H]rosiglitazone); conditions: Table 3; [3H]rosiglitazone 10 nM, human recombinant
T1 construct: host or cells: E. coli
T1 sequence (P37231 1-505): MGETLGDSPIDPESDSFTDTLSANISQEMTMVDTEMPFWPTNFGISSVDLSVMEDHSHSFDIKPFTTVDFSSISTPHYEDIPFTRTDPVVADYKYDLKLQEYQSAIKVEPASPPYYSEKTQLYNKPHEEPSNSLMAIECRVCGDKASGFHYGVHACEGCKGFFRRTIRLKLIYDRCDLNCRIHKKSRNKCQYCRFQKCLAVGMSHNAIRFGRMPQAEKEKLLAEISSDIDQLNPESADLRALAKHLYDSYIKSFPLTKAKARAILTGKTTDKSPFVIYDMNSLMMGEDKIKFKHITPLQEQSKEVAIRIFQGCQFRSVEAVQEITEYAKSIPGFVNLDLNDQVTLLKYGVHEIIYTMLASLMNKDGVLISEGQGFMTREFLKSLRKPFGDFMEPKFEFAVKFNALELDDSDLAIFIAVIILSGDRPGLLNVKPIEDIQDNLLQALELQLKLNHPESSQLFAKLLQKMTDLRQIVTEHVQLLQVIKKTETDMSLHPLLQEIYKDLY
Text: Selected GST2 Inhibitors Screened Against PPARγ and KATP Channel Modulator Assays
Selected GST2 inhibitors of General Formula (I) were screened in a PPARγ assay to determine their modulator effects.
(§1) The specific ligand binding to the receptor is defined as the difference between the total binding and the non-specific binding determined in the presence of an excess of unlabelled ligand. The results are expressed as a percent inhibition of control specific binding obtained in the presence of the test compounds.
(§2) In each experiment, the respective reference compound was tested concurrently with the test compounds in order to assess the assay suitability. It was tested at several concentrations (for IC50 value determination), and the data were compared with historical values.

K+ATP channel = K+ATP channel (Rattus norvegicus, UniProt Q09429); experiment: KATP channel receptor binding assay ([3H]glibenclamide); conditions: [3H]glibenclamide 0.1 nM, rat cerebral cortex
Protocol: KATP Channel Mediated Binding Assay
The compounds of Comparative Examples I to XII and Compounds 59, 30, 22, 76 and 69 were tested for their effects in an in vitro receptor binding KATP channel assay.
as §1, §2

[2] = biological target: T2, human Prostaglandin D Synthase (GST2) (Homo sapiens, UniProt O60760); experiment: Homogeneous biochemical assay of human Prostaglandin D Synthase (GST2) based on its glutathion-S-transferase activity (GSH conjugation to monochlorobimane, fluorescence)
T2 construct: the open reading frame of human Prostaglandin D Synthase was amplified from cDNA; made in house; host or cells: E. coli TOP10F'
Method in brief: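 N-His-tagged human PGD synthase from E. coli, assayed via its GST activity: GSH conjugation to monochlorobimane in 50 mM MES/KOH pH 6.1, 0.7 mM GSH, 2 mM MgCl2. Compounds at final picomolar to triple-digit micromolar concentrations.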

[3] = Mouse microsomal metabolism assay; type: in vitro ADME; conditions: liver microsomes; mouse hepatic microsomes, 37° C., phosphate buffer pH 7.4, NADPH regenerating system; read-out: Mouse t½
Protocol: Selected GST2 Inhibitors from Formula I Assessed in Mouse Microsomal Metabolism Assay
Selected GST2 inhibitors of General Formula (I) were screened in a mouse hepatic microsome assay to determine microsomal metabolism.
Test Articles were prepared in 50% acetonitrile.
Mouse hepatic microsomes supplied by BD GenTest Inc or an equivalent reputable supplier.
Test Articles are added to incubation plates containing phosphate buffer pH 7.4 and microsomes at a suitable protein concentration. Incubation plates are placed on a shaking water bath at 37° C. for 5 minutes pre-incubation. An aliquot of the reaction mixture is taken and added to acetonitrile (3:1). This is designated time […]. NADPH regenerating system in phosphate buffer pH 7.4 is added to initiate reactions. Aliquots from the incubation wells are taken at a number of time points and added to acetonitrile. Control incubations contained no microsomes or compounds with known microsomal stabilities. Samples were subject to centrifugation to remove denatured protein and the supernatants were analysed by LCMS.
Half lives were calculated from the log vs time transformed data according to the following equation: […]
Where λ is the slope of the linear regression line under first order (Test Article concentration <Km) conditions.

T2 sequence (O60760 whole entry): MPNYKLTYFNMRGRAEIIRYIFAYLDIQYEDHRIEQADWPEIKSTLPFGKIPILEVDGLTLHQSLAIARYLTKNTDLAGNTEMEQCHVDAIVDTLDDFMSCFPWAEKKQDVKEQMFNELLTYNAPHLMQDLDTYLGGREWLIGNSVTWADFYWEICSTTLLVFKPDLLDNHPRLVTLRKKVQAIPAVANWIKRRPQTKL
Sequence of K+ATP channel (Q09429 whole entry): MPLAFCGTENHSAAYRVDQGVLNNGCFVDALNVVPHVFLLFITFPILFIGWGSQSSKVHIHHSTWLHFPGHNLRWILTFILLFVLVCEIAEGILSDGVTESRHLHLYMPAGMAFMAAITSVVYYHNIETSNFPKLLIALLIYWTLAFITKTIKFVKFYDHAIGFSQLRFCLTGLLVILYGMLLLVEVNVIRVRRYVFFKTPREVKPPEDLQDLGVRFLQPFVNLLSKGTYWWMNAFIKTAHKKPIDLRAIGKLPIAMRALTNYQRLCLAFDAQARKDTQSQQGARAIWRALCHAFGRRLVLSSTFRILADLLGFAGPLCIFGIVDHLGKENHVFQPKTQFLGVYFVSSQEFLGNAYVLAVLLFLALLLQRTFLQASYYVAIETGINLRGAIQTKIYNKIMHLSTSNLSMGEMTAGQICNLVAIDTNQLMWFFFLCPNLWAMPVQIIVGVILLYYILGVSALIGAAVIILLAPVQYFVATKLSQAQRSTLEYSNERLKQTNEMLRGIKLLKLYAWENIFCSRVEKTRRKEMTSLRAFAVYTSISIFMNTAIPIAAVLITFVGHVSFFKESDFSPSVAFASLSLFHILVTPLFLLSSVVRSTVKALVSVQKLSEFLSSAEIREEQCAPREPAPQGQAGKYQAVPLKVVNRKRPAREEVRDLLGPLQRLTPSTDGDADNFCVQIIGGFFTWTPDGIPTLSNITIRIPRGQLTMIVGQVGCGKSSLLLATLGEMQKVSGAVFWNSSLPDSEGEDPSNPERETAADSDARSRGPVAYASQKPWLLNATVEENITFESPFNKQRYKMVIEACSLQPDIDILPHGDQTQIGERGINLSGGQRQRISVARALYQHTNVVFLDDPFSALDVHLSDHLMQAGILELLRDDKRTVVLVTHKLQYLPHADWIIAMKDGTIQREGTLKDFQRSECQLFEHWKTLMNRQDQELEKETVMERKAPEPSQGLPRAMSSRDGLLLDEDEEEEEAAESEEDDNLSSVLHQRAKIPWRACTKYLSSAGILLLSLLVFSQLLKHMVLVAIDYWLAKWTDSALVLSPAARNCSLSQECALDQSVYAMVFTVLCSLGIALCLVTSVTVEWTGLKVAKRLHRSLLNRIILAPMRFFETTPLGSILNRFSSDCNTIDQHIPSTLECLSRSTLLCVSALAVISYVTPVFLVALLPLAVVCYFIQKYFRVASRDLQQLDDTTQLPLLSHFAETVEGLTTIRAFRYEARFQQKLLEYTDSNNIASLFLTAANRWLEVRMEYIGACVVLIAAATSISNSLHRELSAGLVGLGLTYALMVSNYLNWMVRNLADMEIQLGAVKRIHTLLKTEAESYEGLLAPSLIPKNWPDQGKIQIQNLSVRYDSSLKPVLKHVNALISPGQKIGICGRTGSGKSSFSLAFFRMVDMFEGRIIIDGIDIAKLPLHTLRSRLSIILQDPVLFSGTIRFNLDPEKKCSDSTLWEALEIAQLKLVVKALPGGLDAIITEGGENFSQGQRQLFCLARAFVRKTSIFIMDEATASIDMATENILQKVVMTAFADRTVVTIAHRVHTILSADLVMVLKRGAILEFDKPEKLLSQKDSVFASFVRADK
Sequence of K+ATP channel (P70673 whole entry partner): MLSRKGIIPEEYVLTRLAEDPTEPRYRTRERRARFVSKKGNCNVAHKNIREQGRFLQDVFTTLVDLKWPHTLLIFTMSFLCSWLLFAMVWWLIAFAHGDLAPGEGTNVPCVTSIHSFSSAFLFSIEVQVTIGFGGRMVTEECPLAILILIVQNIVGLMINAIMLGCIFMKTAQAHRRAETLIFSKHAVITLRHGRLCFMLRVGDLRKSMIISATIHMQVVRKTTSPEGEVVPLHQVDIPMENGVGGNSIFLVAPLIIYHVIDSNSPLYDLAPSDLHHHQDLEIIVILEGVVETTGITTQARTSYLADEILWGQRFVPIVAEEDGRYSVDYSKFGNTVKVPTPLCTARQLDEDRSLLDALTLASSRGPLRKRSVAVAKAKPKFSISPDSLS

PPARγ (% Inhibition of Control Specific Binding) (PPARγ (h)): 1%
inhibition at 10 µM (K+ATP channel; Table 1, 10 μM compound concentration, read-out: K^+ATP Channel (% Inhibition of Control Specific Binding)): 1%
K+ATP Channel (% Inhibition of Control Specific Binding) (K+ATP channel; Table 3): 14%
IC50 ([2]; Table 1, read-out: GST2 IC50 Range): 101 to 1000 nM
IC50 ([2]; Table 3, read-out: GST2 IC50 range): 101 to 1000 nM
IC50 ([2]; given beside the compound name in Examples 1 to 167, read-out: Potency Range (GST2 IC50)): 101 to 1000 nM
half-life [3]: > 1 h
Structure (SMILES): O=C(Nc1ccc(C(F)(F)F)cc1)N1CCN(C(=O)c2cccc(F)n2)CC1 [Compound 22, 4-(6-Fluoro-pyridine-2-carbonyl)-piperazine-1-carboxylic acid (4-trifluoromethyl-phenyl)-amide]
reduced weight gain [1]: 7%
